{"source": "patent US20030232101A1", "about": "“Topical formulations of resorcinols and cannibinoids and methods of use” (Immugen Pharmaceuticals, Inc., priority 2002, published 2003)", "type_in_all_cases": "cell-based", "key": {"HIV-1": {"system": "HIV-1", "assay": "HeLa CD4 LTR β-gal HIV-1 attachment assay (Experimental Example 1)", "details": "Human immunodeficiency virus 1, HeLa"}, "HeLa CD4 LTR β-gal cells [1]": {"system": "HeLa CD4 LTR β-gal cells", "assay": "Compound toxicity in the attachment assay, sister plates, MTS dye reduction", "experimental": "(§1) At assay termination the assay plates were stained with the soluble tetrazolium-based dye MTS (CellTiter96® Reagent Promega) to determine cell viability and quantify compound toxicity. MTS is metabolized by the mitochondria enzymes of metabolically active cells to a soluble formazan product, allowing the rapid quantitative analysis cell viability and compound cytotoxicity. […] At termination of the assay 20 μL of MTS reagent was added per well and incubated for 4 h at 37° C. Adhesive plate sealers were used in place of the lids, the sealed plate was inverted several times to mix the soluble formazan product and the plate was read spectrophotometrically at 490 nm with a Molecular Devices Vmax plate reader.\nThe attachment assay was performed with the HeLa CD4 LTR β-gal cells available from the AIDS Research and Reference Reagent Repository. […] HeLa CD4 LTR β-gal cells express cell surface CD4 and contain an LTR β-galactosidase reporter construct. Upon infection either the Tat protein incorporated into the virion or new Tat produced following virus integration and transcription trans-activates the LTR β-gal reporter, leading to expression of the β-galactosidase enzyme. HeLa CD4 LTR β-gal cells are routinely cultured with the required selection antibiotics and screened for mycoplasma contamination. Twenty-four h prior to initiation of the assay cells were trypsinized, counted and 1×10^4 cells placed in a 0.2 cm well in media without selection antibiotics. […] A known titer of virus was then added to the wells and the incubation continued for 1 h. At the end of the incubation the wells were washed 6 times with media and the culture continued for 48 h. At 48 h the wells were washed one time with PBS and β-galactosidase enzyme expression determined by chemiluminescence per manufacturers instructions (Tropix Gal-screen™, Tropix, Bedford, Mass.). Compound toxicity was monitored on sister plates using MTS dye reduction."}, "[2]": {"system": "interaction of HIV gp 120 with CD4 (HeLa CD4 LTR β-gal / HL2/3 cell fusion)", "assay": "HeLa CD4 LTR β-gal/HL2/3 HIV-1 fusion assay (Experimental Example 1)", "details": "Human immunodeficiency virus 1, HeLa, 48 h, read-out: Antiviral Activity IC50", "source_text": "This assay uses the HeLa CD4 LTR β-gal and HL2-3 cells available from the AIDS Research and Reference Reagent Repository. The fusion assay utilizes HeLa CD4 LTR β-gal cells with HL2/3 cells as a fusion partner via the interaction of HIV gp 120 with CD4. HL2/3 cells express HIV-1 Env on their cell surface and contain an HIV-1 Tat expression cassette. Upon syncytium formation and plasma membrane fusion, cytoplasmic mixing of the HL2/3 and HeLa CD4 LTR b-gal cell contents results in the transactivation of the LTR and β-Galactosidase expression is then directly related to […] cell membrane fusion. Thus, these two mechanistic assays can be used to confirm and identify a virus entry-based target of the compound. Additionally, because the attachment assay uses cell-free virus this assay can be used to show applicability to cell-free virus transmission.\n(§2) Twenty-four h prior to initiation of the assay cells were trypsinized, counted and 5×10^3 cells placed in a 0.2 cm well in media without selection antibiotics. To initiate the fusion assay HeLa CD4 LTR β-gal (5×10^3 cells per 0.2 cm well) were incubated with compound for 1 h at 37° C. HL2/3 cells (5×10^3) were added to the 0.2 cm well and the incubation continued for 48 h. At 48 h the wells were washed 1 time with PBS and β-galactosidase enzyme expression determined by chemiluminescence per manufacturers instructions (Tropix Gal-screen™, Tropix, Bedford, Mass.). Compound toxicity was monitored on sister plates using MTS dye reduction.\nIn addition to assessing inhibition of attachment with HeLa CD4 LTR β-gal cells a virus fusion assay was perfoed using HeLa CD4 LTR β-gal and HL2/3 cells. No timed addition of compound was employed, but rather the assay was performed to verify the effects of the compounds on the HeLa CD4 LTR β-gal cells β-galactosidase expression."}, "HeLa CD4 LTR β-gal cells [3]": {"system": "HeLa CD4 LTR β-gal cells", "assay": "Compound toxicity in the fusion assay, sister plates, MTS dye reduction", "details": "no timed addition; 48 h", "experimental": "as §1, §2"}, "IIIB strain of HIV-1": {"system": "IIIB strain of HIV-1", "assay": "Virus attachment assay, HeLa CD4 LTR β-gal cells (Experimental Example 2)", "details": "Human immunodeficiency virus 1, IIIB, HeLa, read-out: Attachment Assay IC50", "experimental": "(§3) This assay detects compounds that block virus attachment using HeLa CD4 LTR β-gal cells. HeLa CD4 LTR β-gal cells were cultured with selection antibiotics. Twenty-four h prior to initiation of the assay, the cells were trypsinized, counted and plated in a 0.2 cm well in media without selection antibiotics. At 24 h media is removed and compound in media placed on the cells and incubated for 15 min at 37° C. A known titer of the IIIB strain of HIV-1 was then added to the wells and the incubation continued for 1 to 2 h. At the end of the incubation the wells were washed 2 times with media and the culture continued for 40 to 48 h. At termination of the assay, media is removed and β-galactosidase enzyme expression determined by chemiluminescence per manufacturer's instructions (Tropix Gal-screen, Bedford Mass.). Compound toxicity is monitored on a sister plate by XTT or MTS dye reduction. All determinations are performed in triplicate with serial_Log10 dilution of the test materials."}, "HeLa CD4 LTR β-gal cells [4]": {"system": "HeLa CD4 LTR β-gal cells", "assay": "Compound toxicity in the attachment assay, sister plate, XTT or MTS (Example 2)", "experimental": "as §3, with “materials. The virus adsorption interval of 1 to 2 h was sufficiently short that AZT, which requires phosphorylation to achieve its active tri-phosphate form (AZT-TTP), is not active in this assay.” for “materials.”"}, "[5]": {"system": "cell-to-cell fusion mediated by HIV-1 Env and CD4", "assay": "Fusion assay, HeLa CD4 LTR β-gal and HL2/3 cells (Experimental Example 2)", "details": "Human immunodeficiency virus 1, HL2/3, read-out: Fusion Assay IC50", "experimental": "(§4) The fusion assay assesses the ability of compounds to block cell-to-cell fusion mediated by HIV-1 Env and CD4 expressed on separate cells. This assay is sensitive to inhibitors of both the gp 120/CD4 interaction and inhibitors of the X4 coreceptor. HeLa CD4 LTR β-gal cells were plated in microtiter wells and diluted compounds are added and allowed to incubate at 37° C. for 1 hr prior to the addition of HL2/3 cells. The incubation was then continued for 40 to 48 h, after which fusion is monitored by measurement of β-galactosidase enzyme expression, detectable by chemiluminescence (Tropix Gal-screen, Tropix, Bedford, Mass.). Compound toxicity is monitored on a sister plate using XTT or MTS dye reduction. All determinations are performed in triplicate with serial_Log10 dilution of the test materials."}, "HeLa CD4 LTR β-gal cells [6]": {"system": "HeLa CD4 LTR β-gal cells", "assay": "Compound toxicity in the fusion assay, sister plate, XTT or MTS (Example 2)", "experimental": "as §4"}}, "data": [{"smiles": "COc1cc(-c2ccc(/N=N/c3ccc4c(S(=O)(=O)O)cc(S(=O)(=O)O)c(N)c4c3O)c(OC)c2)ccc1/N=N/c1ccc2c(S(=O)(=O)O)cc(S(=O)(=O)O)c(N)c2c1O", "note": "[CSB, Chicago Sky Blue, reference compound]", "values": [{"measurement": "IC50", "setting": "HIV-1; Experiment 1, pretreat 0 h", "value": 1.1, "unit": "µg/mL"}, {"measurement": "IC50", "setting": "HIV-1; Experiment 1, pretreat 4 h", "value": 1.71, "unit": "µg/mL"}, {"measurement": "IC50", "setting": "HIV-1; Experiment 1, pretreat 24 h", "value": 1.3, "unit": "µg/mL"}, {"measurement": "IC50", "setting": "HIV-1; Experiment 2, pretreat 0 h", "value": 0.17, "unit": "µg/mL"}, {"measurement": "IC50", "setting": "HIV-1; Experiment 2, pretreat 4 h", "value": 2.11, "unit": "µg/mL"}, {"measurement": "IC50", "setting": "HIV-1; Experiment 2, pretreat 24 h", "value": 4.7, "unit": "µg/mL"}, {"measurement": "TC50", "setting": "HeLa CD4 LTR β-gal cells [1]; Experiment 1, pretreat 0 h", "value": ">10", "unit": "µg/mL"}, {"measurement": "TC50", "setting": "HeLa CD4 LTR β-gal cells [1]; Experiment 1, pretreat 4 h", "value": ">10", "unit": "µg/mL"}, {"measurement": "TC50", "setting": "HeLa CD4 LTR β-gal cells [1]; Experiment 1, pretreat 24 h", "value": ">10", "unit": "µg/mL"}, {"measurement": "TC50", "setting": "HeLa CD4 LTR β-gal cells [1]; Experiment 2, pretreat 0 h", "value": ">10", "unit": "µg/mL"}, {"measurement": "TC50", "setting": "HeLa CD4 LTR β-gal cells [1]; Experiment 2, pretreat 4 h", "value": ">10", "unit": "µg/mL"}, {"measurement": "TC50", "setting": "HeLa CD4 LTR β-gal cells [1]; Experiment 2, pretreat 24 h", "value": ">10", "unit": "µg/mL"}, {"measurement": "IC50", "setting": "[2]", "value": 1.75, "unit": "µg/mL"}, {"measurement": "TC50", "setting": "HeLa CD4 LTR β-gal cells [3]", "value": ">10", "unit": "µg/mL"}, {"measurement": "IC50", "setting": "IIIB strain of HIV-1", "value": 0.63, "unit": "µg/mL"}, {"measurement": "Attachment Assay TC50", "setting": "HeLa CD4 LTR β-gal cells [4]", "value": ">10", "unit": "µg/mL"}, {"measurement": "IC50", "setting": "[5]", "value": 0.41, "unit": "µg/mL"}, {"measurement": "Fusion Assay TC50", "setting": "HeLa CD4 LTR β-gal cells [6]", "value": ">100", "unit": "µg/mL"}]}]}
